Measurements from paper PMC10301922, “Anti-Oxidant, Anti-Mutagenic Activity and Safety Evaluation of Antrocin” (Toxics, 2023).
≈ marks a conversion by molar mass, not a printed value. Read-outs that look alike come from different tables or passages of the source.

Assays:
[1] = Trolox equivalent antioxidant capacity (TEAC); details: 10 mg/mL antrocin
Protocol: The following methodology describes the TEAC assay: Add 40 μL of sample to a 96-well plate and adjust the volume to 100 μL with ddH2O. The absorbance of the sample should be within the linear range of the standard curve (0–20 nmol/well). The detection limit of this assay is approximately 0.1 nmol (or 1 µM) Trolox per well. For Trolox Standard Curve Preparation, dissolve lyophilized Trolox Standard in 20 µL of pure DMSO, add 980 µL of distilled water and mix well to generate a 1 mM solution, then aliquot the solution and store it at −20 °C for stable storage for 4 months. Add 0, 4, 8, 12, 16, 20 µL of Trolox standard to each well. Adjust the total volume to 100 µL with ddH2O to obtain 0, 4, 8, 12, 16, 20 nmol of Trolox standards, respectively. For preparation of working solutions, dilute 1 part of Cu^2+ reagent with 49 parts of Assay Diluent, and dilute enough working solution for detection. Add 100 µL of Cu^2+ working solution to standard wells and sample wells. After capping the plate and reacting at room temperature for 1.5 h, measure the absorbance at 570 nm. Draw a Trolox standard curve by subtracting the 0 nmol standard reading from all standard curve readings. […]
• Sa = the amount of sample (in nmol) read from the standard curve. • Sv = the undiluted sample volume added to the well.

[2] = test system: Salmonella typhimurium TA98; assay: Ames test (plate incorporation), TA98
[3] = test system: lung cancer tumor xenografts; set-up: method as in PMID 23880305; details: 5 mg/kg/day intraperitoneal; cited from earlier work
Sprague Dawley rats = assay: 28-day oral toxicity test: clinical signs, mortality, overall result
CHO-K1 cells [4] = test system: CHO-K1 cells
Protocol: A chromosomal aberration test was performed to evaluate the potential for antrocin to induce structural chromosomal abnormalities in Chinese hamster ovary cells (CHO-K1 cells). The test followed the protocol in Genetic Toxicology Testing: A Laboratory Manual. CHO-K1 cells were obtained from the Bioresource Collection and Research Center (BCRC), and were cultured in Ham F-12 medium with 10% fetal bovine serum and 0.1% Penicillin–Streptomycin at 5% CO2 in a 37 °C incubator. […] Three experimental conditions were conducted: 3 h with and without S9 (short term), and 19 h without S9 (long term). […] CHO-K1 cells were cultured in 25T flasks, incubated with samples for 3 or 19 h with and without S9, and harvested at the time of 1.5 cell cycle lengths (about 21 h). Two hours before harvesting, 100 μL colcemid (10 μg/mL) was added to disrupt cell mitosis. Collected cells were then treated with 0.6% KCl solution and fixed with acetic acid–methanol (1:3) solution. After fixation, cells were stained with Diff-Quik on a glass slide. A total of 300 cells in metaphase per group were observed, and the number of chromosomal aberrations was recorded. The chromosomal aberration rate (%) was calculated using the following formula: (number of cells with aberrations/total number of cells examined) × 100. A Student’s t-test was used for statistical analysis, and a significant increase (p < 0.05) compared to the negative control indicated a positive response.

[5] = 28-day oral toxicity test: body weight; type: in vivo
CHO-K1 cells [6] = assay: MTT assay for cytotoxicity; type: cell-based, Chinese hamster; details: Cricetulus griseus, MTT, 24 h, read-out: half maximal inhibitory concentration (IC50)
[7] = MTT assay for cytotoxicity; type: cell-based, Chinese hamster; details: Chinese hamster, CHO-K1 cells, read-out: cell viabilities

Q: Which “Trolox Equivalent Antioxidant Capacity (mM Trolox Equivalents)” value [1] does the source give for C=C1CC[C@H]2C(C)(C)CCC[C@@]23C(=O)OC[C@@H]13 [Antrocin, (-)-Antrocin] here?
A: 0.508 ± 0.003 mM Trolox equivalents

Q: And the “Number of Revertant” value ([2]; TA98, with S9, 0.003125 mg/plate)?
A: 33.7 ± 1.2 Colony/Plate

Q: And the “Number of Revertant” value ([2]; TA98, with S9, 0.00625 mg/plate)?
A: 32.0 ± 1.6 Colony/Plate

Q: And the “Number of Revertant” value ([2]; TA98, with S9, 0.025 mg/plate)?
A: 34.3 ± 3.3 Colony/Plate

Q: What about the “Number of Revertant” value ([2]; TA98, with S9, 0.05 mg/plate) of the same compound?
A: 36.0 ± 4.3 Colony/Plate

Q: What about the “Number of Revertant” value ([2]; TA98, without S9, 0.00625 mg/plate) of the same compound?
A: 246.0 ± 16.4 Colony/Plate

Q: And the “Number of Revertant” value ([2]; TA98, without S9, 0.025 mg/plate)?
A: 278.3 ± 4.5 Colony/Plate

Q: And the “Number of Revertant” value ([2]; TA98, without S9, 0.05 mg/plate)?
A: 270.0 ± 11.2 Colony/Plate

Q: And the bacterial mutagenicity ([2]; preliminary tests, TA98, 100 μg/plate)?
A: no bacterial mutagenicity

Q: What about the “growth of lung cancer tumor xenografts” value [3] of the same compound?
A: significantly suppressed the growth

Q: What about the “toxic effects according to hematology, serum chemistry, urine analysis, histopathological examinations” value (Sprague Dawley rats; 7.5 or 37.5 mg/kg oral 28 d) of the same compound?
A: did not produce any toxic effects

Q: What about the “highest dosage with no adverse effect” value (Sprague Dawley rats; 28-day oral toxicity test in rats) of the same compound?
A: 37.5 mg/kg/day

Q: What about the “chromosomal aberration frequency versus negative control” value (CHO-K1 cells [4]; 25-100 μg/mL, short-term with S9, short-term without S9, long-term exposure) of the same compound?
A: no significant differences

Q: And the “Frequency of Chromosomal Aberration (%)” value (CHO-K1 cells [4]; with S9 (3 h), 25 μg/mL)?
A: 5.3 ± 1.2%

Q: And the “Total Aberrations” value (CHO-K1 cells [4]; with S9 (3 h), 25 μg/mL)?
A: 16/300

Q: And the “Frequency of Chromosomal Aberration (%)” value (CHO-K1 cells [4]; with S9 (3 h), 50 μg/mL)?
A: 6.3 ± 2.1%

Q: And the “Total Aberrations” value (CHO-K1 cells [4]; with S9 (3 h), 50 μg/mL)?
A: 19/300

Q: And the “Frequency of Chromosomal Aberration (%)” value (CHO-K1 cells [4]; with S9 (3 h), 100 μg/mL)?
A: 6.3 ± 2.1%

Q: What about the “Total Aberrations” value (CHO-K1 cells [4]; with S9 (3 h), 100 μg/mL) of the same compound?
A: 19/300

Q: And the “Frequency of Chromosomal Aberration (%)” value (CHO-K1 cells [4]; without S9 (3 h), 25 μg/mL)?
A: 4.3 ± 3.8%

Q: And the “Total Aberrations” value (CHO-K1 cells [4]; without S9 (3 h), 25 μg/mL)?
A: 13/300

Q: And the “Frequency of Chromosomal Aberration (%)” value (CHO-K1 cells [4]; without S9 (3 h), 50 μg/mL)?
A: 4.3 ± 2.9%

Q: What about the “Total Aberrations” value (CHO-K1 cells [4]; without S9 (3 h), 50 μg/mL) of the same compound?
A: 13/300

Q: What about the “Frequency of Chromosomal Aberration (%)” value (CHO-K1 cells [4]; without S9 (3 h), 100 μg/mL) of the same compound?
A: 5.3 ± 2.1%

Q: And the “Total Aberrations” value (CHO-K1 cells [4]; without S9 (3 h), 100 μg/mL)?
A: 16/300

Q: And the “Frequency of Chromosomal Aberration (%)” value (CHO-K1 cells [4]; without S9 (19 h), 25 μg/mL)?
A: 9.3 ± 1.2%

Q: And the “Total Aberrations” value (CHO-K1 cells [4]; without S9 (19 h), 25 μg/mL)?
A: 28/300

Q: What about the “Frequency of Chromosomal Aberration (%)” value (CHO-K1 cells [4]; without S9 (19 h), 50 μg/mL) of the same compound?
A: 10.3 ± 2.5%

Q: And the “Total Aberrations” value (CHO-K1 cells [4]; without S9 (19 h), 50 μg/mL)?
A: 31/300

Q: And the “Frequency of Chromosomal Aberration (%)” value (CHO-K1 cells [4]; without S9 (19 h), 100 μg/mL)?
A: 7.3 ± 1.5%

Q: And the “Total Aberrations” value (CHO-K1 cells [4]; without S9 (19 h), 100 μg/mL)?
A: 22/300

Q: What about the “Body Weight” value ([5]; female rats, 7.5 mg/kg oral, 0-Day) of the same compound?
A: 163.3 ± 6.3 g

Q: And the “Body Weight” value ([5]; female rats, 7.5 mg/kg oral, 7-Day)?
A: 190.0 ± 9.0 g

Q: And the “Body Weight Gain” value ([5]; female rats, 7.5 mg/kg oral, 7-Day (7th − 0th))?
A: 26.7 ± 5.6 g

Q: What about the “Body Weight” value ([5]; female rats, 7.5 mg/kg oral, 14-Day) of the same compound?
A: 212.9 ± 12.1 g

Q: And the “Body Weight Gain” value ([5]; female rats, 7.5 mg/kg oral, 14-Day (14th − 7th))?
A: 22.8 ± 6.0 g

Q: What about the “Body Weight” value ([5]; female rats, 7.5 mg/kg oral, 21-Day) of the same compound?
A: 229.3 ± 14.6 g

Q: What about the “Body Weight Gain” value ([5]; female rats, 7.5 mg/kg oral, 21-Day (21st − 14th)) of the same compound?
A: 16.4 ± 5.2 g

Q: What about the “Body Weight” value ([5]; female rats, 7.5 mg/kg oral, 28-Day) of the same compound?
A: 246.6 ± 21.7 g

Q: What about the “Body Weight Gain” value ([5]; female rats, 7.5 mg/kg oral, 28-Day (28th − 21st)) of the same compound?
A: 17.3 ± 7.9 g

Q: What about the “Body Weight” value ([5]; female rats, 37.5 mg/kg oral, 0-Day) of the same compound?
A: 162.4 ± 6.3 g

Q: What about the “Body Weight” value ([5]; female rats, 37.5 mg/kg oral, 7-Day) of the same compound?
A: 188.5 ± 7.9 g

Q: And the “Body Weight Gain” value ([5]; female rats, 37.5 mg/kg oral, 7-Day (7th − 0th))?
A: 26.1 ± 4.1 g

Q: What about the “Body Weight” value ([5]; female rats, 37.5 mg/kg oral, 14-Day) of the same compound?
A: 212.0 ± 7.0 g

Q: And the “Body Weight Gain” value ([5]; female rats, 37.5 mg/kg oral, 14-Day (14th − 7th))?
A: 23.4 ± 3.6 g

Q: What about the “Body Weight” value ([5]; female rats, 37.5 mg/kg oral, 21-Day) of the same compound?
A: 230.1 ± 9.7 g

Q: What about the “Body Weight Gain” value ([5]; female rats, 37.5 mg/kg oral, 21-Day (21st − 14th)) of the same compound?
A: 18.1 ± 5.0 g

Q: And the “Body Weight” value ([5]; female rats, 37.5 mg/kg oral, 28-Day)?
A: 241.7 ± 13.6 g

Q: And the “Body Weight Gain” value ([5]; female rats, 37.5 mg/kg oral, 28-Day (28th − 21st))?
A: 11.6 ± 6.3 g

Q: What about the “Body Weight” value ([5]; male rats, 7.5 mg/kg oral, 0-Day) of the same compound?
A: 181.4 ± 5.1 g

Q: What about the “Body Weight” value ([5]; male rats, 7.5 mg/kg oral, 7-Day) of the same compound?
A: 237.9 ± 13.6 g

Q: What about the “Body Weight Gain” value ([5]; male rats, 7.5 mg/kg oral, 7-Day (7th − 0th)) of the same compound?
A: 56.5 ± 10.1 g

Q: What about the “Body Weight” value ([5]; male rats, 7.5 mg/kg oral, 14-Day) of the same compound?
A: 295.0 ± 22.5 g

Q: What about the “Body Weight Gain” value ([5]; male rats, 7.5 mg/kg oral, 14-Day (14th − 7th)) of the same compound?
A: 57.1 ± 8.9 g

Q: And the “Body Weight” value ([5]; male rats, 7.5 mg/kg oral, 21-Day)?
A: 349.5 ± 34.3 g

Q: And the “Body Weight Gain” value ([5]; male rats, 7.5 mg/kg oral, 21-Day (21st − 14th))?
A: 54.5 ± 12.4 g

Q: What about the “Body Weight” value ([5]; male rats, 7.5 mg/kg oral, 28-Day) of the same compound?
A: 389.6 ± 46.6 g

Q: And the “Body Weight Gain” value ([5]; male rats, 7.5 mg/kg oral, 28-Day (28th − 21st))?
A: 40.1 ± 12.5 g

Q: What about the “Body Weight” value ([5]; male rats, 37.5 mg/kg oral, 0-Day) of the same compound?
A: 183.9 ± 9.0 g

Q: And the “Body Weight” value ([5]; male rats, 37.5 mg/kg oral, 7-Day)?
A: 235.6 ± 9.6 g

Q: What about the “Body Weight Gain” value ([5]; male rats, 37.5 mg/kg oral, 7-Day (7th − 0th)) of the same compound?
A: 51.8 ± 4.7 g

Q: And the “Body Weight” value ([5]; male rats, 37.5 mg/kg oral, 14-Day)?
A: 289.0 ± 17.3 g

Q: What about the “Body Weight Gain” value ([5]; male rats, 37.5 mg/kg oral, 14-Day (14th − 7th)) of the same compound?
A: 53.4 ± 13.9 g

Q: What about the “Body Weight” value ([5]; male rats, 37.5 mg/kg oral, 21-Day) of the same compound?
A: 332.3 ± 21.0 g

Q: And the “Body Weight Gain” value ([5]; male rats, 37.5 mg/kg oral, 21-Day (21st − 14th))?
A: 43.2 ± 7.7 g

Q: What about the “Body Weight” value ([5]; male rats, 37.5 mg/kg oral, 28-Day) of the same compound?
A: 367.6 ± 30.6 g

Q: And the “Body Weight Gain” value ([5]; male rats, 37.5 mg/kg oral, 28-Day (28th − 21st))?
A: 35.3 ± 12.9 g

Q: What about the IC50 (CHO-K1 cells [6]) of the same compound?
A: ~123 mg/L (≈ 524 µM)

Q: What about the viability at 24 h, 31.25 μg/mL ([7]; 31.25 μg/mL) of the same compound?
A: 81.3 ± 5%

Q: What about the viability at 24 h, 62.5 μg/mL ([7]; 62.5 μg/mL) of the same compound?
A: 62.9 ± 8.9%

Q: What about the viability at 24 h, 250 μg/mL ([7]; 250 μg/mL) of the same compound?
A: 24.8 ± 1.9%

Q: What about the viability at 24 h, 500 μg/mL ([7]; 500 μg/mL) of the same compound?
A: 22.1 ± 1.5%
